The assay deals with 11-beta-hydroxysteroid dehydrogenase 1 (Homo sapiens, UniProt P28845). Put plainly: Inhibition of FLAG tagged human recombinant 11beta-HSD1 reductase activity expressed in Trichoplusia ni Hi5 cells. The format is cell-based, BTI-TN-5B1-4.
Chain of 11-beta-hydroxysteroid dehydrogenase 1 (P28845 whole entry): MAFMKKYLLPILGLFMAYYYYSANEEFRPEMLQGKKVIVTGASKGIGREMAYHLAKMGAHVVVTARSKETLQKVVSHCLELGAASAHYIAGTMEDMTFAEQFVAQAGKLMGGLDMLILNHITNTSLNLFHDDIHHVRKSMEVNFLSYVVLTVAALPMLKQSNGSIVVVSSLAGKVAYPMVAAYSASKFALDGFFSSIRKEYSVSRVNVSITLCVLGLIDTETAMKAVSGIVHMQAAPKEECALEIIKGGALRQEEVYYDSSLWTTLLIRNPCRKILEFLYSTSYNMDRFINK

In the case of `CC(C)n1c(-c2ccc(OC(F)(F)F)cc2)nnc1C1(c2ccc(F)cc2)CC1`, the IC50 is 1.6 nM.

One may read the IC50 as the midpoint of a concentration-inhibition curve.

For the origin of these results see ChEMBL document CHEMBL1144222, “Distinctive molecular inhibition mechanisms for selective inhibitors of human 11beta-hydroxysteroid dehydrogenase type 1” (Bioorg Med Chem, 2008).
